Source: patent US20200071351A1, “TACCALONOLIDE MICROTUBULE STABILIZERS” (THE BOARD OF REGENTS OF THE UNIVERSITY OF TEXAS SYSTEM, priority 2016, published 2020)
Read-outs that look alike come from different tables or passages of the source.

Experiments:
[1] = system: PC-3 prostate cancer cell line; experiment: Inhibition of cellular proliferation, SRB assay, PC-3 cells; assay type: cell-based; settings: average of 3-4 independent experiments
Method: (§1) The HeLa cervical cancer cell line, the SK-OV-3 ovarian cancer cell line and the PC-3 prostate cancer cell line were obtained from American Type Tissue Culture Collection (Manassas, Va.) and grown in Basal Media Eagle (BME) or RPMI 1640 medium (Invitrogen; Carlsbad, Calif.) supplemented with 10% fetal bovine serum (Hyclone; Logan, Utah) and 50 μg/ml gentamicin sulfate (Invitrogen). The P-glycoprotein expressing SK-OV-3/MDR-1-6/6 cell line and the βIII-tubulin expressing WTβIII cell line have been described previously (Risinger et al., 2008).
(§2) The antiproliferative and cytotoxic effects of the taccalonolides were evaluated using the SRB assay (Skehan et al., 1990, Boyd and Paull, 1995) as previously described (Tinley et al., 2003). The concentration of drug that causes 50% inhibition of cellular proliferation (IC50) was calculated from the linear portion of the log dose response curve. The ability of the compounds to initiate cytotoxicity was also determined. […] The determination of IC50 values was performed on taccalonolide material after NMR analysis and subsequent lyophilization. Ethanol or DMSO was used as the vehicle for all cellular studies.
(§3) The ability of taccalonolides AF and AJ to inhibit the proliferation of both drug sensitive cancer cells, including ovarian cancer cells (SK-OV-3), cervical cancer cells (HeLa) and prostate cancer cells (PC-3) and drug resistant cells, including the P-glycoprotein expressing SK-OV-3 line (SK-OV-3/MDR-1-6/6) and the βIII-tubulin expressing HeLa cell line (WTβIII) was determined.
(§4) Referring to Table 3, the effect of the taccalonolides in drug resistant and sensitive cells is shown. IC50 values for inhibition of cellular proliferation for taccalonolides AF and AJ were determined in drug sensitive and drug resistant cell lines. The HeLa cell pair evaluated the effect of βIII tubulin expression on cell sensitivity and the ability of compounds to overcome drug resistance mediated by βIII tubulin expression. […] IC50 values were calculated from an average of 3-4 independent experiments, each performed in triplicate.

[2] = system: HeLa cells; experiment: Cell cycle distribution by flow cytometry; settings: 18 h, 125 nM AF, 200 nM AI, 35 nM AJ
[3] = system: SK-OV-3/MDR-1-6/6 cell line; experiment: Inhibition of cellular proliferation, SRB assay, P-glycoprotein expressing SK-OV-3/MDR-1-6/6 cells; assay type: cell-based; settings: for IC50: SK-OV-3/MDR-1-6/6, average of 3-4 independent experiments; for relative resistance (Rr): IC50 SK-OV-3/MDR-1-6/6 divided by IC50 SK-OV-3
Method: as §1, §2, §3
(§5) Referring to Table 3, the effect of the taccalonolides in drug resistant and sensitive cells is shown. IC50 values for inhibition of cellular proliferation for taccalonolides AF and AJ were determined in drug sensitive and drug resistant cell lines. The HeLa cell pair evaluated the effect of βIII tubulin expression on cell sensitivity and the ability of compounds to overcome drug resistance mediated by βIII tubulin expression. The SK-OV-3 cell line pair was used to evaluate the effects of the expression of P-glycoprotein (Pgp) on cell sensitivity and the ability of compounds to overcome Pgp-mediated drug resistence. The effects of the taccalonolides on the drug senstive prostate cancer cell line PC-3 are also presented. IC50 values were calculated from an average of 3-4 independent experiments, each performed in triplicate.

[4] = system: βIII-tubulin expressing HeLa cell line (WTβIII); experiment: Inhibition of cellular proliferation, SRB assay, βIII-tubulin expressing WTβIII cell line; assay type: cell-based; settings: for IC50: WTβIII, average of 3-4 independent experiments; for relative resistance (Rr): IC50 WTβIII divided by IC50 HeLa
Method: as §1, §2, §3, §5

[5] = system: MDA-MB-231-BR-Luc2 cells; experiment: Growth of intracranially injected breast cancer cells in the brain, luciferase imaging; assay type: in vivo, female athymic nude mice; settings: for brain tumor photon counts, day 0: day 0, 10 second exposure; for brain tumor photon counts, day 0 / brain tumor photon counts, day 7: one mouse each, AF 2.2 mg/kg ip, paclitaxel 20 mg/kg ip on days 0 and 4; for brain tumor photon counts, day 7: day 7, 10 second exposure
Method: Referring to FIG. 15, A brain-seeking clone of the MDA-MB-231 triple negative breast cancer cell line stably transfected with luciferase was injected intracranially (1×10^6 MDA-MB-231-BR-Luc2 cells in 5 μL PBS) into female athymic nude mice. […] On day 7, mice were again imaged as described above (FIGS. 15C, D). The brain tumor in the mouse treated with taccalonolide AF measured 2.2×10^3 photon counts with an exposure time of 10 seconds on day 0 but was undetectable with the same 10 second exposure time on day 7. A longer exposure time of 60 seconds gave a photon count of 2.4×10^3.

[6] = system: SK-OV-3 ovarian cancer cell line; experiment: Inhibition of cellular proliferation, SRB assay, SK-OV-3 cells; assay type: cell-based; settings: average of 3-4 independent experiments
Method: as §1, §2, §3, §4

[7] = system: HeLa cells; experiment: Inhibition of cellular proliferation, SRB assay, HeLa cells; assay type: cell-based; settings: for increase in potency as compared to the parent taccalonolide on C22-C23 epoxidation: HeLa IC50 ratio, parent/epoxide
Method: The ability of the compounds to initiate cytotoxicity was also determined. […] The determination of IC50 values was performed on taccalonolide material after NMR analysis and subsequent lyophilization. Ethanol or DMSO was used as the vehicle for all cellular studies.
The antiproliferative potencies of the taccalonolides were evaluated in HeLa cells using the SRB assay.

[8] = system: human mammary epithelial cells; experiment: Cytotoxicity to normal cells; assay type: cell-based; settings: concentrations 5 to 100-fold the IC50 values in the HeLa cancer cell line
[9] = system: HeLa cells; experiment: Mitotic spindle structures, indirect immunofluorescence; assay type: cell-based; settings: 18 h, 125 nM AF, 200 nM AI, 35 nM AJ
Method: Cellular microtubules in interphase and mitotic HeLa cells were visualized using indirect immunofluorescence techniques as previously described (Tinley et al., 2003). […] Representative images of interphase and mitotic cells were acquired using a Nikon Eclipse 80i fluorescence microscope and compiled using NIS Elements AR 3.0 software.
The effects of the taccalonolides on mitotic spindle structures were evaluated to test whether they caused mitotic spindle defects leading to cell cycle arrest. β-tubulin and DNA were visualized in HeLa cells by indirect immunofluorescence and DAPI staining, respectively. […] These mitotic cells contained multiple abnormal mitotic spindles, which is another common effect of microtubule stabilizing agents (FIGS. 4A-D).
The microtubule structures in mitotic cells were visualized by indirect immunofluorescence using a β-tubulin antibody.

[10] = system: purified porcine brain tubulin; experiment: Tubulin polymerization followed turbidimetrically; assay type: biochemical; settings: 10 μM compound, 2 mg/ml tubulin, 10% glycerol, 1 mM GTP, 37° C., OD340
Method: The ability of these new potent taccalonolides to interact directly with tubulin was assessed by incubating purified porcine brain tubulin at a concentration of 2 mg/ml in the presence of 10% glycerol and 1 mM GTP, which allows for a baseline level of tubulin polymerization that can be followed turbidimetrically (FIG. 5).
Tubulin polymerization was monitored by turbidity measurement at OD340.

[11] = system: MDA-MB-231 human breast tumors; experiment: Antitumor activity in MDA-MB-231 breast tumor xenograft; assay type: in vivo, Nude mice; settings: 2.5 mg/kg on days 0 and 4 or 2.0 mg/kg on days 0, 3, and 7
Method: The ability of taccalonolide AF to inhibit the growth of the aggressive human breast tumor MDA-MB-231 in a murine host was determined. Taccalonolide AF was administered at a dose of 2.5 mg/kg on days 0 and 4 or 2.0 mg/kg on days 0, 3, and 7.
Referring to FIG. 6, Nude mice bearing bilateral MDA-MB-231 human breast tumors were treated with 2.0 mg/kg of AF on days 0, 3 and 7, 2.5 mg/kg AF on days 0 and 4, or 10 mg/kg PTX on days 0, 2, 4 and 7 as a positive control. Tumor volume was measured using calipers and mass calculated with the formula: Tumor mass (mg)=0.5×[…]. Median tumor mass with standard error of the mean (n=10) are graphically represented. *p<0.05, **p<0.01.

[12] = HeLa cells, SRB assay, read-out: IC50
[13] = HeLa, average of 3-4 independent experiments, read-out: IC50 for inhibition of cellular proliferation, HeLa

Row | SMILES | brain tumor photon counts, day 0 [5] | brain tumor photon counts, day 7 [5] | increase in potency as compared to the parent taccalonolide on C22-C23 epoxidation [7] [fold] | IC50 [7, 12] [nM] | IC50 [7, 13] [nM] | IC50 [1] [nM] | cytotoxicity of normal cells [8] | relative resistance (Rr) [3] | IC50 [3] [nM] | relative resistance (Rr) [4] | IC50 [4] [nM] | effect on mitotic spindle structures [9] | rate and extent of tubulin polymerization [10] | IC50 [6] [nM] | also measured
1 | CC(=O)O[C@H]1C(=O)[C@@]2(C)[C@H]([C@H](OC(=O)c3ccccc3)[C@]3(O)C[C@H](OC(=O)[C@H](O)[C@@H](NC(=O)c4ccccc4)c4ccccc4)C(C)=C1C3(C)C)[C@]1(OC(C)=O)CO[C@@H]1C[C@@H]2O [Paclitaxel, paclitaxel, reference compound] | 1.8×10^4 photon counts | 9.0×10^4 photon counts |  |  |  |  |  |  |  |  |  |  |  |  | IC50 ([1]; Homo sapiens): 3.7 ± 0.2 nM; effect on mitotic progression / cell cycle distribution [2]: mitotic arrest; IC50 ([3]; Homo sapiens): 785 ± 88 nM; IC50 ([4]; Homo sapiens, HeLa): 17.8 ± 1.2 nM; IC50 ([6]; Homo sapiens): 3.8 ± 0.2 nM
2 | CC(=O)O[C@@H]1[C@H]2[C@H]3[C@H]([C@H](OC(C)=O)[C@H](OC(C)=O)[C@]2(C)[C@H]2[C@H](C)[C@H]4O[C@]45OC(=O)[C@@](C)(O)[C@]5(C)[C@@H]12)[C@]1(C)[C@H](C[C@@H]2O[C@@H]2[C@@H]1OC(C)=O)C(=O)[C@@H]3O [Taccalonolide AF] | 2.2×10^3 photon counts | undetectable | 234 | 23 | 23.6 ± 2.1 | 128 ± 16 | No cytotoxicity | (4.6) | 366 ± 30.6 | (1.3) | 30.6 ± 3.3 | mitotic arrest of cells with multiple abnormal mitotic spindles | dramatically increased | 79.4 ± 3.5 | brain tumor photon count, day 7, longer exposure ([5]; day 7, 60 seconds exposure, AF 2.2 mg/kg ip on days 0 and 4): 2.4×10^3 photon count; antitumor activity compared to vehicle treated controls [11]: sufficient to observe antitumor activity; antitumor activity compared to positive control 10 mg/kg paclitaxel ([11]; paclitaxel days 0, 2, 4 and 7): equivalent or greater than the positive control
3 | CC(=O)O[C@H]1[C@H]2[C@H]([C@@H]3[C@@H](O)[C@@H]4[C@H]([C@H](C)[C@@H]5O[C@@]56OC(=O)[C@@](C)(O)[C@]46C)[C@@]3(C)[C@H]1OC(C)=O)[C@@H](O)C(=O)[C@H]1C[C@@H]3O[C@@H]3[C@H](OC(C)=O)[C@]21C [Taccalonolide AJ] |  |  | 743 | 4.3 | 6.6 ± 0.3 | 25.1 ± 4 | No cytotoxicity | (7.8) | 126 ± 12.8 | (1.7) | 11.1 ± 0.6 | mitotic arrest of cells with multiple abnormal mitotic spindles | dramatically increased | 16.3 ± 0.8 | 
